Assay [1] has as its target alcohol oxidase (Candida boidini) (Candida boidinii, UniProt Q00922). As to conditions: Candida boidini enzyme, electrochemistry.
The target in assay [2] is alcohol oxidase (Pichia pastoris) (Komagataella phaffii, UniProt P04842). The settings on record: Pichia pastoris enzyme. The method, then:
(§1) The Michaelis-Menten constant (KM) of an enzyme can be determined in an aqueous environment from the initial reaction rate of the enzyme catalyzed reaction, by either calorimetric or electrochemical analysis. The initial reaction rate was determined using both methods, based on the results obtained for different concentrations of methanol and ethanol and various alcohol oxydases (Hansenula sp., Pichia pastoris and Candida boidinii). Using the Hanes method (diagram of the concentration/initial rate as a function of the initial concentration of the substrate in the reaction medium), the KM can be calculated, which corresponds to the origin of the straight line, opposite the abscissa.

Assay [3] relates to alcohol oxidase (Hansenula sp.). Put plainly: KM by the Hanes method, electrochemistry, alcohol oxidase of Hansenula sp. It counts as biochemical. As to conditions: Hansenula sp. enzyme. The method, then: as §1
Assay [4] deals with T1, alcohol oxidase (Komagataella phaffii, UniProt P04842).
T1 construct: purchased Sigma A-2404
T1 sequence (P04842 1-663): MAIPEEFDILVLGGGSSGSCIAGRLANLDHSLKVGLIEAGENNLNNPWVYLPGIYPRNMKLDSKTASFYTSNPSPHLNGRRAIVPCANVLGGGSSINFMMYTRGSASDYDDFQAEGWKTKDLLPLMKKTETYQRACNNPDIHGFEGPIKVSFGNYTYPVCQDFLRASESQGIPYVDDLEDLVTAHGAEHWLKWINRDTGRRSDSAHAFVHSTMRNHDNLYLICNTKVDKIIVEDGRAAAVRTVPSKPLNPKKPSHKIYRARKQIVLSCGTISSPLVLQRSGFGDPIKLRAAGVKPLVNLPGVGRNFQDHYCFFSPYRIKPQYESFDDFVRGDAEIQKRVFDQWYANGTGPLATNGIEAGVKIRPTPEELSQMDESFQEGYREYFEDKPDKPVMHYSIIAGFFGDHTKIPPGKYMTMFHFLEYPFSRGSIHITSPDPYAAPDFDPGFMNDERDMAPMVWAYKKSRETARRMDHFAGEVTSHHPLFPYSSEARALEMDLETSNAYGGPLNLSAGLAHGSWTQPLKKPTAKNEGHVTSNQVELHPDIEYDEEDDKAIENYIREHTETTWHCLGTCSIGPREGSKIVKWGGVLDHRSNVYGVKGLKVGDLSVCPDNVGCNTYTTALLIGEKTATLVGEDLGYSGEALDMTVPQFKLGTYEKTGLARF
Description: Tests to improve the observed signals: effect of SDS on enzyme activity. As to conditions: SDS 0.1%. The format is biochemical. Here is the method: Tests aiming to improve the observed signals were carried out. Low concentrations of SDS (0.1%) allow for a uniform deposit of a sample on the surface of the working electrode, while simultaneously increasing the enzyme activity by a factor of 110%.

Like-named read-outs stand apart in the source and are kept apart here.

Sequence of alcohol oxidase (Candida boidini) (Q00922 2-663 limits assumed): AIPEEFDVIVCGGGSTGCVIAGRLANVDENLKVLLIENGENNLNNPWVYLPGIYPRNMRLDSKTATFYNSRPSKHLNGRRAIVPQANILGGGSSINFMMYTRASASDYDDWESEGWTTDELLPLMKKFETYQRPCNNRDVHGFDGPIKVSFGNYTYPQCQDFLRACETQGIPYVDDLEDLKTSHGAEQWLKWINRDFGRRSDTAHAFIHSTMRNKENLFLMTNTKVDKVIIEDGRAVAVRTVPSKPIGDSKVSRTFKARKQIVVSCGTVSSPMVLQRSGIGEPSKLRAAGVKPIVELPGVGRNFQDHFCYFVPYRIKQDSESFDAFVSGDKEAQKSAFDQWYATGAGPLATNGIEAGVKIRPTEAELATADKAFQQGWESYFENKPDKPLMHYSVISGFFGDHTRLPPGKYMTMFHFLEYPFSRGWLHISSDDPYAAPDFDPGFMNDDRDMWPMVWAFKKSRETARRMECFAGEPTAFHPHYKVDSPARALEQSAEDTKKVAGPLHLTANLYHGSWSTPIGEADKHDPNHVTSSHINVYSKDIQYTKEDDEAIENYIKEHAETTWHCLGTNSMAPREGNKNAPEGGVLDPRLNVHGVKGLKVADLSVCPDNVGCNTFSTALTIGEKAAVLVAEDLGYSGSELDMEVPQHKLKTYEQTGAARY

With `CO` [MeOH, methanol], the Km stood at 290 µM in assay [1] (read-out: KM MeOH, [MeOH] 0.05-0.5 mM); 640 µM in assay [2] (read-out: KM MeOH, [MeOH] 0.02-2.5 mM, colorimetry); 310 µM in assay [2] (read-out: KM MeOH, [MeOH] 0.05-2.5 mM, electrochemistry); 560 µM in assay [2] (read-out: KM MeOH, [MeOH] 0.125-1.0 mM, electrochemistry); 390 µM in assay [3] ([MeOH] 0.05-2.5 mM, read-out: KM MeOH).

Regarding `CCO` [EtOH, ethanol], the Km in assay [1] (read-out: KM EtOH, [EtOH] 0.25-1.25 mM) worked out at 8410 µM; in assay [2] (read-out: KM EtOH, [EtOH] 0.05-3.3 mM, colorimetry), 3460 µM; in assay [2] (read-out: KM EtOH, [EtOH] 0.25-5.0 mM, electrochemistry), 2610 µM; in assay [2] (read-out: KM EtOH, [EtOH] 2.5-10.0 mM, electrochemistry), 2910 µM; in assay [3] ([EtOH] 0.25-5.0 mM, read-out: KM EtOH), 6000 µM.

Turning to `CCCCCCCCCCCCOS(=O)(=O)[O-].[Na+]` [SDS], in assay [4], the “increasing the enzyme activity by a factor of” value amounted to 110%.
